According to PubChem BioAssay (NCI):
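Compound exposure: 48 hours, 5 concentrations, 96-well plates. Here, GI50 denotes the concentration required for 50% inhibition of growth. TGI: total growth inhibition.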

Legend:
Assay in all cases: inhibition of tumour cell growth, NCI panel, 48 h
NCI/ADR-RES ovarian = tested on: NCI/ADR-RES ovarian
LOX IMVI melanoma = tested on: LOX IMVI melanoma
IGROV1 ovarian = tested on: IGROV1 ovarian
HOP-62 NSCLC = tested on: HOP-62 NSCLC
SF-539 CNS = tested on: SF-539 CNS
UACC-257 melanoma = tested on: UACC-257 melanoma
HCC-2998 colon = tested on: HCC-2998 colon
K-562 leukemia = tested on: K-562 leukemia
OVCAR-4 ovarian = tested on: OVCAR-4 ovarian
SK-MEL-2 melanoma = tested on: SK-MEL-2 melanoma

Row | Compound | GI50 (NCI/ADR-RES ovarian) [µM] | TGI (NCI/ADR-RES ovarian) [µM] | GI50 (LOX IMVI melanoma) [µM] | TGI (LOX IMVI melanoma) [µM] | GI50 (IGROV1 ovarian) [µM] | TGI (IGROV1 ovarian) [µM] | GI50 (HOP-62 NSCLC) [µM] | TGI (HOP-62 NSCLC) [µM] | GI50 (SF-539 CNS) [µM] | TGI (SF-539 CNS) [µM] | GI50 (UACC-257 melanoma) [µM] | TGI (UACC-257 melanoma) [µM] | GI50 (HCC-2998 colon) [µM] | TGI (HCC-2998 colon) [µM] | GI50 (K-562 leukemia) [µM] | TGI (K-562 leukemia) [µM] | GI50 (OVCAR-4 ovarian) [µM] | TGI (OVCAR-4 ovarian) [µM] | GI50 (SK-MEL-2 melanoma) [µM] | TGI (SK-MEL-2 melanoma) [µM]
1 | COc1cc2c3c(n(CCCNC(C)(C)CO)c(=O)c2cc1OC)-c1cc2c(cc1C3=O)OCO2 | 3.28 | 28.3 | 0.255 | 2.06 | 1.7 | > 100 | 0.131 | 5.14 | 0.356 | 31.3 | 19.1 | 49.9 | 1.39 | 7.87 | 2.82 | > 55.7 | 11.3 | 42.1 | 30.8 | > 78.5
2 | COc1ccc(/C=C/C(=O)c2ccc(B(O)O)cc2)cc1O | 26.8 | > 100 | 4.66 | 19.1 | 12.5 | > 54.4 | 18.5 | > 57.2 | 12.5 | > 79.6 | 21.6 | 59.3 | 6.46 | 18.6 | 2.86 | > 100 | 16.7 | 40.3 | 26.1 | 64.9
3 | O=C1NC(=N[C@@H]2C[C@H]2c2ccccc2)S/C1=C\c1ccc2ncccc2c1 | 2.9 | 10.1 | 1.22 | 12.1 | 2.66 | 11.9 | 1.67 | 6.38 | 1.04 | 5.07 | 5.17 | 18.9 | 1.93 | 18.4 | 1.42 | > 25 | 0.854 | 6.71 | 4 | 9.55
4 | CCOC(=O)c1cc2c(OC)cc(OC)cc2oc1=O | – | > 100 | – | > 100 | – | > 100 | – | > 100 | – | > 100 | – | > 100 | – | > 100 | – | > 100 | – | > 100 | – | > 100
5 | O=C(NCCCNc1cc(-c2cn(-c3ccccc3)nc2-c2cccc(O)c2)ccn1)c1ccc(F)cc1 | 2.2 | 5.75 | 2.27 | 5.88 | 4.22 | 24.9 | 2.64 | 10.8 | 2.15 | 5.41 | 1.8 | 3.87 | 1.83 | 3.4 | 1.93 | > 100 | 3.79 | > 100 | 2.18 | 5.06
6 | CSc1nc(SC)c2cnn(-c3ccnc4cc(Cl)ccc34)c2n1 | 51.2 | > 100 | > 59 | > 100 | 47.8 | > 100 | 29.1 | > 96.1 | 29.1 | > 62.4 | > 49.7 | > 86.4 | 82.7 | > 100 | > 61 | > 100 | > 100 | > 100 | > 44.9 | > 72.8
7 | CN(CCNc1ccc(C(=N)N)cc1)c1ccc(C(=N)N)cc1 | 63.6 | > 100 | > 100 | > 100 | 68.8 | > 100 | 50 | > 100 | 35.1 | > 100 | 35.1 | > 100 | 97.3 | > 100 | 27.6 | > 100 | 66 | > 100 | 18 | > 100
8 | CN1CCN(C(=O)OCc2nc3c(N4CCOCC4)nc(-c4ccccc4)nc3n2C)CC1 | 1.82 | 6.03 | 0.176 | 0.443 | 0.632 | 2.03 | 1.53 | 3.79 | 1.33 | 2.6 | 1.47 | 3.17 | 1.58 | 3.21 | 0.512 | 7.41 | 1.2 | 2.65 | 1.85 | 3.69
9 | CC(C)c1ccc2c(c1)CCC1C(C)(CN)CCCC21C (stereo not given) | – | 3.61 | – | 2.99 | – | 2.93 | – | 3.14 | – | 3.36 | – | 3.03 | – | 0.485 | – | 3.01 | – | 2.72 | – | 3.15
10 | O=C1/C(=C\c2ccc(Cl)cc2)CN(C(=O)c2ccccc2)C/C1=C\c1ccc(Cl)cc1 | 3.59 | 19.7 | 0.771 | 2.26 | 3.22 | 9.78 | 2.45 | 6.41 | 2.15 | 5.13 | 5.51 | 33.9 | 2.03 | 3.97 | 1.98 | > 100 | 2.54 | 19.4 | 16.8 | 71.2
11 | O=C(NC(=S)Nc1ccc(-c2nc3ccccc3[nH]2)cc1)c1ccc2ccccc2c1 | 4.52 | > 100 | 2.14 | 4.74 | 7.66 | > 100 | 2.41 | 5.58 | 2.07 | 4.53 | 5.59 | > 100 | 7.15 | > 100 | 13.3 | > 100 | 2.78 | 9.22 | 18.3 | 48.8
